According to publication PMC7351026, “Serum Half-Lives for Short- and Long-Chain Perfluoroalkyl Acids after Ceasing Exposure from Drinking Water Contaminated by Firefighting Foam” (Environmental Health Perspectives, 2020):

Assays:
[1] = PFAS levels in serum samples of airport employees (LC/MS/MS); conditions: for Serum level in the first samples, median (range) / Relative composition of PFAS in serum, molar concentration basis / Relative composition of PFAS in serum, weight basis / Serum concentration, molar basis / Serum concentration, weight basis: all 26 airport employees; for Relative composition of PFAS in serum, molar concentration basis / Relative composition of PFAS in serum, weight basis: first serum samples; for Serum concentration, molar basis / Serum concentration, weight basis: median of first serum samples; for Serum level, median (range): second to fifth samplings, 17 airport employees
Outline: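 Serum from airport employees, drawn after contaminated drinking-water exposure ended, up to five monthly rounds, all reanalyzed in one batch. 25 μL serum precipitated with acetonitrile/methanol plus labeled internal standards; LC/MS/MS on BEH C18 with ammonium acetate/methanol gradient, calibrants prepared in FBS.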

[2] = PFAS levels in urine samples of airport employees, specific-gravity adjusted (LC/MS/MS); assay type: in vivo, human; conditions: for Specific gravity adjusted urine level, median (range): second to fifth samplings, 17 airport employees
Protocol: Only one employee provided a single urine sample. […] All employees provided written informed consent.
The samples were thawed 1–2 h, then mixed by vortex shaker and manual turning. […] For the urine samples, 50μL urine was mixed with 25μL of methanol and 25μL of a 50% acetonitrile solution containing isotopically labeled internal standards (see Table S1). Then samples were shaken vigorously for 30 min and centrifuged at 3,000×g for 10 min at room temperature.
Aliquots of 20μL of the sample were analyzed using LC/MS/MS. […] The analysis was performed in negative ion mode. The ion source temperature was at 350°C.
Urinary PFAS concentrations were specific-gravity adjusted. The ratio of urine and serum concentration for each PFAS (urine/serum ratio) at each sampling was calculated based on PFAS concentrations in paired serum and urine samples from 17 employees. Then the personal average urine/serum ratio was calculated using the mean value of repeated samplings for each employee.

[3] = Serum/water ratio; assay type: in vivo, human; conditions: median serum level of first samples (26 employees) divided by airport drinking-water level
Protocol: The ratio of serum and water concentration for each PFAS (serum/water ratio) was calculated based on median serum level in the first serum sample obtained from all 26 airport employees divided by the drinking-water concentration. This ratio is an indicator of PFAS accumulation in body.

[4] = 1st sampling (September 2018), count 17
[5] = 2nd sampling (October 2018), count 17
[6] = 3rd sampling (November, 2018), count 17
[7] = 4th sampling (December 2018), count 16
[8] = 5th sampling (January 2019), count 16
[9] = employees participated in first blood sampling and repeated blood and urine sampling, N=17
[10] = employees participated in first blood sampling only, N=9, 11-14 d after end of exposure
[11] = 3rd sampling (November, 2018), count 16
[12] = 4th sampling (December 2018), count 14
[13] = 5th sampling (January 2019), count 12

## O=S(=O)(O)C(F)(F)C(F)(F)C(F)(F)C(F)(F)C(F)(F)F [PFPeS, perfluoropentane sulfonic acid]
[1]; [4]
  Serum PFAS level, 25 percentile: 5.8
  Serum PFAS level, 75 percentile: 13
  Serum PFAS level, Max: 17
  Serum PFAS level, Median: 7.6
  Serum PFAS level, Min: 3.6
[1]; [5]
  Serum PFAS level, 25 percentile: 4.9
  Serum PFAS level, 75 percentile: 11
  Serum PFAS level, Max: 14
  Serum PFAS level, Median: 6.8
  Serum PFAS level, Min: 2.3
[1]; [6]
  Serum PFAS level, 25 percentile: 4.4
  Serum PFAS level, 75 percentile: 11
  Serum PFAS level, Max: 14
  Serum PFAS level, Median: 6.3
  Serum PFAS level, Min: 2.1
[1]; [7]
  Serum PFAS level, 25 percentile: 4.0
  Serum PFAS level, 75 percentile: 11
  Serum PFAS level, Max: 14
  Serum PFAS level, Median: 6.5
  Serum PFAS level, Min: 1.8
[1]; [8]
  Serum PFAS level, 25 percentile: 4.4
  Serum PFAS level, 75 percentile: 9.9
  Serum PFAS level, Max: 13
  Serum PFAS level, Median: 6.2
  Serum PFAS level, Min: 1.9
[1]
  Serum level in the first samples, median (range): 6.9 (1.4–17) ng/mL
  Relative composition of PFAS in serum, molar concentration basis: 7.3%
  Relative composition of PFAS in serum, weight basis: 6.3%
  Serum concentration, molar basis: 0.020
  Serum concentration, weight basis: 6.9
  Serum level, median (range): 6.5 (1.8–14) ng/mL
[1]; [9]
  PFAS in first serum sample, median (range): 7.6 (3.6–17) ng/mL
[1]; [10]
  PFAS in first serum sample, median (range): 3.5 (1.4–11) ng/mL
[1]; exposed employees 5 months after exposure ceased
  Serum level, median: 6.22 ng/mL
[1]; females (N=7)
  Initial serum PFAS level, max: 15 ng/mL
  Initial serum PFAS level, median: 5.1 ng/mL
  Initial serum PFAS level, min: 3.5 ng/mL
[1]; males (N=19)
  Initial serum PFAS level, Max: 17 ng/mL
  Initial serum PFAS level, Min: 1.4 ng/mL
  Initial serum PFAS level, median: 7.2 ng/mL
[2]; [5]
  Specific gravity adjusted urinary level, 25 percentile: 0.06 ng/mL
  Specific gravity adjusted urinary level, 75 percentile: 0.08 ng/mL
  Specific gravity adjusted urinary level, Max: 0.11 ng/mL
  Specific gravity adjusted urinary level, Median: 0.07 ng/mL
  Specific gravity adjusted urinary level, Min: 0.04 ng/mL
[2]; [11]
  Specific gravity adjusted urinary level, 25 percentile: 0.05 ng/mL
  Specific gravity adjusted urinary level, 75 percentile: 0.09 ng/mL
  Specific gravity adjusted urinary level, Max: 0.12 ng/mL
  Specific gravity adjusted urinary level, Median: 0.07 ng/mL
  Specific gravity adjusted urinary level, Min: 0.02 ng/mL
[2]; [12]
  Specific gravity adjusted urinary level, 25 percentile: 0.07 ng/mL
  Specific gravity adjusted urinary level, 75 percentile: 0.08 ng/mL
  Specific gravity adjusted urinary level, Max: 0.12 ng/mL
  Specific gravity adjusted urinary level, Median: 0.08 ng/mL
  Specific gravity adjusted urinary level, Min: 0.03 ng/mL
[2]; [13]
  Specific gravity adjusted urinary level, 25 percentile: 0.06 ng/mL
  Specific gravity adjusted urinary level, 75 percentile: 0.08 ng/mL
  Specific gravity adjusted urinary level, Max: 0.09 ng/mL
  Specific gravity adjusted urinary level, Median: 0.07 ng/mL
  Specific gravity adjusted urinary level, Min: 0.05 ng/mL
[2]
  Specific gravity adjusted urine level, median (range): 0.072 (0.021–0.12) ng/mL
[3]
  Serum/water ratio: 38.3

## O=S(=O)(O)C(F)(F)C(F)(F)C(F)(F)C(F)(F)C(F)(F)C(F)(F)C(F)(F)C(F)(F)F [L-PFOS, linear perfluorooctane sulfonic acid]
[1]; [4]
  Serum PFAS level, 25 percentile: 7.7
  Serum PFAS level, 75 percentile: 15
  Serum PFAS level, Max: 28
  Serum PFAS level, Median: 11
  Serum PFAS level, Min: 5.5
[1]; [5]
  Serum PFAS level, 25 percentile: 7.6
  Serum PFAS level, 75 percentile: 16
  Serum PFAS level, Max: 24
  Serum PFAS level, Median: 10
  Serum PFAS level, Min: 4.1
[1]; [6]
  Serum PFAS level, 25 percentile: 7.3
  Serum PFAS level, 75 percentile: 16
  Serum PFAS level, Max: 23
  Serum PFAS level, Median: 11
  Serum PFAS level, Min: 4.7
[1]; [7]
  Serum PFAS level, 25 percentile: 7.4
  Serum PFAS level, 75 percentile: 14
  Serum PFAS level, Max: 24
  Serum PFAS level, Median: 9.8
  Serum PFAS level, Min: 4.4
[1]; [8]
  Serum PFAS level, 25 percentile: 9.1
  Serum PFAS level, 75 percentile: 16
  Serum PFAS level, Max: 23
  Serum PFAS level, Median: 10
  Serum PFAS level, Min: 4.5
[1]
  Serum level in the first samples, median (range): 9.5 (5.4–28) ng/mL
  Relative composition of PFAS in serum, weight basis: 8.6%
  Serum concentration, molar basis: 0.019
  Serum concentration, weight basis: 9.5
  Serum level, median (range): 10 (4.1–24) ng/mL
[1]; [9]
  PFAS in first serum sample, median (range): 11 (5.5–28) ng/mL
[1]; [10]
  PFAS in first serum sample, median (range): 6.5 (5.4–13) ng/mL
[1]; females (N=7)
  Initial serum PFAS level, max: 13 ng/mL
  Initial serum PFAS level, median: 9.3 ng/mL
  Initial serum PFAS level, min: 5.5 ng/mL
[1]; listed as PFOS (linear)
  Relative composition of PFAS in serum, molar concentration basis: 7.0%
[1]; males (N=19)
  Initial serum PFAS level, Max: 28 ng/mL
  Initial serum PFAS level, Min: 5.4 ng/mL
  Initial serum PFAS level, median: 10 ng/mL
[2]; [5]
  Specific gravity adjusted urinary level, 25 percentile: < LOD
  Specific gravity adjusted urinary level, 75 percentile: 0.01 ng/mL
  Specific gravity adjusted urinary level, Max: 0.08 ng/mL
  Specific gravity adjusted urinary level, Median: < LOD
  Specific gravity adjusted urinary level, Min: < LOD
[2]; [11]
  Specific gravity adjusted urinary level, 25 percentile: < LOD
  Specific gravity adjusted urinary level, 75 percentile: 0.02 ng/mL
  Specific gravity adjusted urinary level, Max: 0.03 ng/mL
  Specific gravity adjusted urinary level, Median: 0.01 ng/mL
  Specific gravity adjusted urinary level, Min: < LOD
[2]; [12]
  Specific gravity adjusted urinary level, 25 percentile: < LOD
  Specific gravity adjusted urinary level, 75 percentile: 0.02 ng/mL
  Specific gravity adjusted urinary level, Max: 0.05 ng/mL
  Specific gravity adjusted urinary level, Median: < LOD
  Specific gravity adjusted urinary level, Min: < LOD
[2]; [13]
  Specific gravity adjusted urinary level, 25 percentile: < LOD
  Specific gravity adjusted urinary level, 75 percentile: 0.01 ng/mL
  Specific gravity adjusted urinary level, Max: 0.04 ng/mL
  Specific gravity adjusted urinary level, Median: < LOD
  Specific gravity adjusted urinary level, Min: < LOD
[3]
  Serum/water ratio: 153

## O=C(O)C(F)(F)C(F)(F)C(F)(F)C(F)(F)C(F)(F)C(F)(F)C(F)(F)F [PFOA, perfluorooctanoic acid]
[1]; [4]
  Serum PFAS level, 25 percentile: 8.7
  Serum PFAS level, 75 percentile: 16
  Serum PFAS level, Max: 31
  Serum PFAS level, Median: 13
  Serum PFAS level, Min: 5.0
[1]; [5]
  Serum PFAS level, 25 percentile: 8.3
  Serum PFAS level, 75 percentile: 14
  Serum PFAS level, Max: 28
  Serum PFAS level, Median: 11
  Serum PFAS level, Min: 4.1
[1]; [6]
  Serum PFAS level, 25 percentile: 7.9
  Serum PFAS level, 75 percentile: 14
  Serum PFAS level, Max: 28
  Serum PFAS level, Median: 11
  Serum PFAS level, Min: 4.6
[1]; [7]
  Serum PFAS level, 25 percentile: 7.5
  Serum PFAS level, 75 percentile: 13
  Serum PFAS level, Max: 27
  Serum PFAS level, Median: 10
  Serum PFAS level, Min: 4.3
[1]; [8]
  Serum PFAS level, 25 percentile: 8.0
  Serum PFAS level, 75 percentile: 14
  Serum PFAS level, Max: 27
  Serum PFAS level, Median: 10
  Serum PFAS level, Min: 4.4
[1]
  Serum level in the first samples, median (range): 9.1 (2.9–31) ng/mL
  Relative composition of PFAS in serum, molar concentration basis: 8.1%
  Relative composition of PFAS in serum, weight basis: 8.2%
  Serum concentration, molar basis: 0.022
  Serum concentration, weight basis: 9.1
  Serum level, median (range): 10 (4.1–28) ng/mL
[1]; [9]
  PFAS in first serum sample, median (range): 13 (5.0–31) ng/mL
[1]; [10]
  PFAS in first serum sample, median (range): 6.5 (2.9–11) ng/mL
[1]; females (N=7)
  Initial serum PFAS level, max: 20 ng/mL
  Initial serum PFAS level, median: 6.7 ng/mL
  Initial serum PFAS level, min: 5.0 ng/mL
[1]; males (N=19)
  Initial serum PFAS level, Max: 31 ng/mL
  Initial serum PFAS level, Min: 2.9 ng/mL
  Initial serum PFAS level, median: 11 ng/mL
[2]; [5]
  Specific gravity adjusted urinary level, 25 percentile: 0.02 ng/mL
  Specific gravity adjusted urinary level, 75 percentile: 0.04 ng/mL
  Specific gravity adjusted urinary level, Max: 0.07 ng/mL
  Specific gravity adjusted urinary level, Median: 0.03 ng/mL
  Specific gravity adjusted urinary level, Min: 0.01 ng/mL
[2]; [11]
  Specific gravity adjusted urinary level, 25 percentile: 0.02 ng/mL
  Specific gravity adjusted urinary level, 75 percentile: 0.04 ng/mL
  Specific gravity adjusted urinary level, Max: 0.07 ng/mL
  Specific gravity adjusted urinary level, Median: 0.03 ng/mL
  Specific gravity adjusted urinary level, Min: 0.01 ng/mL
[2]; [12]
  Specific gravity adjusted urinary level, 25 percentile: 0.02 ng/mL
  Specific gravity adjusted urinary level, 75 percentile: 0.05 ng/mL
  Specific gravity adjusted urinary level, Max: 0.13 ng/mL
  Specific gravity adjusted urinary level, Median: 0.04 ng/mL
  Specific gravity adjusted urinary level, Min: 0.01 ng/mL
[2]; [13]
  Specific gravity adjusted urinary level, 25 percentile: 0.03 ng/mL
  Specific gravity adjusted urinary level, 75 percentile: 0.04 ng/mL
  Specific gravity adjusted urinary level, Max: 0.07 ng/mL
  Specific gravity adjusted urinary level, Median: 0.03 ng/mL
  Specific gravity adjusted urinary level, Min: 0.02 ng/mL
[2]
  Specific gravity adjusted urine level, median (range): 0.031 (0.010–0.13) ng/mL
[3]
  Serum/water ratio: 30.3
